Source: patent US11725015B2, “Macrocyclic compound and uses thereof” (President and Fellows of Harvard College, priority 2017, dated 2023)

Experiments:
EDA-fibronectin = assay: Effect on EDA-fibronectin in the FaDu subcutaneous model in mice; type: in vivo; details: Compound (1) 180 μg/kg + CTX 10 mg/kg on Day 1, five days after, compared with control tumors
Description: A human squamous cell carcinoma of the head and neck (SCCHN) cell line FaDu, which had been cultured in an RPMI-1640 medium containing 10% FBS, and penicillin-streptomycin (culture medium), was adjusted to a concentration of 5×10^7 cells/mL with culture medium to prepare a cell suspension. The cell suspension was inoculated in a volume of 100 μL into a subcutaneous part of a right flank of nude mice, 6 weeks of ages (CAnN.Cg-Foxnlnu/CrlCrlj, female, Charles River Laboratories Japan, Inc.). Ten days after cell inoculation, the mice were grouped such that averages of the tumor volumes were substantially equal among the groups. The experiment was conducted on groups each consisting of 5 mice. Compound (1) was dissolved in DMSO and a solution was stored in the freezer before use. […] Five days after the single administration, tumor samples were collected and fixed with IHC Zinc Fixative (BD Pharmingen) at 4° C. for 24 hr. Paraffin-embedded tissues were sectioned (3 μm), mounted on positively charged slides, and air-dried. Sections were deparaffinized, conditioned and the antigens were retrieved using microwave with 1 mM EDTA at pH 6.0 for Tenascin-C. For EDA-fibronectin, the antigens retrieval procedure was not necessary. […]

[1] = system: COLO-704 subcutaneous xenograft; assay: Antitumor effects in the COLO-704 xenograft model in mice as monotherapy; type: in vivo
Description: A human ovarian cancer cell line COLO-704, which had been cultured in a RPMI-1640 containing 10% FBS, and penicillin-streptomycin, was adjusted to a concentration of 1×10^8 cells/mL with Hanks' Balanced Salt Solution to prepare a cell suspension. The cell suspension was inoculated in a volume of 100 μL into a subcutaneous part of a right flank of nude mice, 5 weeks of ages (CAnN.Cg-Foxn1nu/CrlCrlj, female, Charles River Laboratories Japan Inc.). Nine days after cell inoculation (Day 1), the shortest diameter and the longest diameter of a tumor in each mouse were measured by using an electronic digital caliper (Digimatic™ caliper, Mitutoyo Corporation), so as to calculate the volume of the tumor in accordance with the following calculation formulae: Tumor volume (mm^3)=Longest diameter (mm)×Shortest diameter (mm)×Shortest diameter (mm)/2 Relative tumor volume (RTV)=Tumor volume (day X)/Tumor volume (the first day) Relative body weight (RBW)=Body weight (day X)/Body weight (the first day)
On the basis of the volumes of tumors obtained on Day 1, the mice were grouped such that averages of the tumor volumes were substantially equal among the groups. The experiment was conducted on groups each consisting of six mice. The test compound was dissolved in DMSO and a solution was stored in the freezer before use. Immediately before the administration, the stock solution was diluted with saline. The test compound in saline was intravenously once-weekly administered at 20 μg/kg, 60 μg/kg, or 180 μg/kg for 2 weeks (on Day 1 and Day 8).

[2] = system: FaDu-Luc subcutaneous xenograft; assay: FaDu s.c. xenograft model in combination with radiation; type: in vivo, mice
Description: Luciferase-transduced FaDu-Luc cells were established by retrovirus-mediated gene transfer. […]. Then, helper-free recombinant retroviruses were produced by transfecting the above retroviral expression vector together with pGP and pE-Ampho plasmids (Takara Bio; Shiga, Japan), into 293T cells (ATCC; Manassas, USA). Next, FaDu cells were infected with the recombinant retroviruses, and were cultured for two weeks in the presence of puromycin (2 μg/mL). The infected cells were selected from a polyclonal proliferative population of the culture.
A luciferase-transduced human SCCHN cell line FaDu-Luc, which had been cultured in an RPMI-1640 medium containing 10% FBS, and penicillin and streptomycin, was adjusted to a concentration of 5×10^7 cells/mL with Hank's Balanced Salt Solution to prepare a cell suspension. The cell suspension was inoculated in a volume of 100 μL into a subcutaneous part of a right thigh of nude mice, 6 weeks of ages (CAnN.Cg-Foxnlnu/CrlCrlj, female, Charles River Laboratories Japan, Inc.). Thirteen days after the cell inoculation, the tumor volume was analyzed using bioluminescence signal from FaDu-Luc cells. […] The bioluminescence signal was monitored using the IVIS […] series (PerkinElmer, Waltham, Mass.), consisting of a highly sensitive, cooled chargecoupled device camera. […] Data were analyzed using total photon flux emission (photons/second) in the ROIs. […]

C=C1C[C@@H]2CC[C@@]34C[C@H]5O[C@H]6[C@@H](O3)[C@H]3O[C@H](CC[C@@H]3O[C@H]6C5O4)CC(=O)O[C@@H]3[C@@H](C)[C@@H]4O[C@@H]5C[C@]6(C[C@@H]7O[C@]8(C[C@H](C)[C@@H]9O[C@H](CN)[C@H](O)C[C@@H]9O8)C[C@H](C)[C@@H]7O6)O[C@@H]5C[C@@H]4O[C@H]3C[C@H]3O[C@@H](CC[C@@H]1O2)C[C@@H](C)C3=C [Compound (1)]
expression level of ED-A fibronectin (EDA-fibronectin): reduced | antitumor effect ([1]; 60 μg/kg intravenously on Day 1 and Day 8): tumor growth delay | antitumor effect ([1]; 180 μg/kg intravenously on Day 1 and Day 8): tumor regression | eradication of xenograft tumors ([1]; 180 μg/kg, on Day 22): completely eradicated the xenograft tumors in all mice | Tumor Regression (%) ([2]; 0.09 mg/kg on day 1 and 8 + radiation 18 Gy on day 4 and day 11): 97% | Tumor Regression (%) ([2]; 0.09 mg/kg on day 1 and 8, without radiation): 0%
